# Legend:
# DLD-1 cells [1] = experiment: Caspase-3/7 activity assay; assay type: cell-based, human; details: CFT 100 µg/ml alone, vs. control untreated cells
# Protocol: (§1) Caspase-3/7 activity was measured 48 h and 72 h post-treatment according to the manufacturer's protocol (Caspase-Glo-3/7 Assay, Promega Corp, Madison, WI, USA). Briefly, equal volume from treated cells and caspase-3/7 mixture were incubated at room temperature for 3 h and the luminescence was measured by a microplate reader.
# as §1, with “DLD-1 cells were treated with CFT (100 µg/ml) or 5-Fluorouracil (16 µM). Caspase-3/7” for “Caspase-3/7”, “caspase 3/7” for “caspase-3/7”
# HCT-116 cells [2] = experiment: MTT metabolic activity assay; assay type: cell-based, human; details: 48 h post-treatment, CFT 100 µg/mL, CFP 50 µg/mL combined with 5-FU
# [3] = Stability in media, LC-MS/MS; assay type: physicochemical; details: antibiotic alone (CFP 50 µg/mL, CFT 100 µg/mL)
# Protocol: B) CFT (100 µg/ml) ± 5-FU (8 µM and 16 µM). P value (a) (between antibiotic alone and 5-FU (8 µM)); P value (b) (between antibiotic alone and 5-FU (16 µM)), n = 3.
# DLD-1 cells [4] = experiment: MTT metabolic activity assay; assay type: cell-based, human
# Protocol: MTT assay was used to assess the proliferation rate of HCT-116 and DLD-1 cells. In this assay the ability of metabolically active cells to convert tetrazolium salt into a blue formazan product is measured. The absorption of the dissolved formazan was quantified at 540 nm by an ELISA reader (Bio-Rad iMark Microplate Reader).
# Cells were plated at 2^∗104cells/ml in 96-well plates and incubated overnight. […] Metabolic activity of the cells was studied using the MTT assay that measures the ability of metabolically active cells to convert tetrazolium salt into a blue formazan product, the absorbance of which is recorded at 540 nm by an ELISA reader (Bio-Rad iMark Microplate Reader).
# [5] = Body weight and survival in the xenograft model; assay type: in vivo, NOD/SCID mice
# Protocol: (§2) Twelve NOD/SCID mice were randomly distributed into two groups (6 mice/group). HCT-116 colon cancer cells (3.5 million) suspended in sterile physiological solution (0.9% NaCl) were injected subcutaneously into the flank of 4 to 6-week old mice. Animals were kept in a light- and temperature-controlled environment and provided with food and water ad libitum. The tumor size was monitored and determined three times per week using a sterile Vernier caliper. Tumor volume was calculated by the following formula: Volume=π/6^∗(length × width × height). Once the tumor size reached seven mm^3, mice were treated three times per week for 21 days with intraperitoneal injections of vehicle (control group) or ceftazidime (10 mg/mouse). Growth delay was assessed by comparing the size of tumors in treated animals to those of control animals. Ethical approval was obtained before the beginning of the experiments.
# HCT-116 cells [6] = experiment: Xenograft model of colon cancer cells, tumor growth; assay type: in vivo, NOD/SCID mice
# Protocol: as §2, with “Once the tumor size reached seven mm^3, mice were treated three times per week for 21 days with intraperitoneal injections of vehicle (control group) or ceftazidime (10 mg/mouse).” left out
# DLD-1 cells [7] = experiment: Antibiotics' uptake by the cells, LC-MS/MS; details: for Concentration of CFT, Lysate / Concentration of CFT, Supernatant: CFT 100 µg/ml alone or + 5-FU 16 µM
# Protocol: (§3) This step was repeated three times and cell homogenate were vortexed at high-speed prior extraction. 40 µl from each supernatant and cell suspension were combined with 200 µl of internal standard working solution prepared in ice-cold methanol. Samples were then centrifuged and 100 µl of the supernatant were diluted with 400 µl water in glass vials prior analysis with LC-/MS/MS.
# HCT-116 cells [8] = experiment: Antibiotics' uptake by the cells, LC-MS/MS; details: for Concentration of CFT, Lysate / Concentration of CFT, Supernatant: CFT 100 µg/ml alone or + 5-FU 8 µM
# Protocol: as §3
# Caco-2 cells = experiment: MTT metabolic activity assay; assay type: cell-based, human; details: 24 h post-treatment, 5-Fluorouracil 4µM
# Protocol: (§4) Cells were plated at 2^∗104cells/ml in 96-well plates and incubated overnight. The following day, cells were treated in triplicate with Ceftazdime or 5-fluorouracil for 24-48 h, depending on the cell line used. Metabolic activity of the cells was studied using the MTT assay that measures the ability of metabolically active cells to convert tetrazolium salt into a blue formazan product, the absorbance of which is recorded at 540 nm by an ELISA reader (Bio-Rad iMark Microplate Reader).
# RAW 264.7 cells = experiment: MTT metabolic activity assay on macrophages; assay type: cell-based, murine
# Protocol: as §4
# [9] = three weeks post-treatment, 10mg/mouse intraperitoneal three times per week
structure (smiles),measurement,setting,value
"CC(C)(O/N=C(\C(=O)N[C@@H]1C(=O)N2C(C(=O)[O-])=C(C[n+]3ccccc3)CS[C@H]12)c1csc(N)n1)C(=O)O [CFT, (6R,7R)-7-[[(2Z)-2-(2-amino-1,3-thiazol-4-yl)-2-(2-carboxypropan-2-yloxyimino)acetyl]amino]-8-oxo-3-(pyridin-1-ium-1-ylmethyl)-5-thia-1-azabicyclo[4.2.0]oct-2-ene-2-carboxylate]",increase of the activity of caspase 3/7,DLD-1 cells [1]; 48 h,20%
same,increase of the activity of caspase 3/7,DLD-1 cells [1]; 72 h,32.1%
same,effect on 5-FU's effect on metabolic activity (in words),HCT-116 cells [2],antagonized 5-FU's effect
same,"Stability test, level in media",[3]; 2h in media,104.4 ± 2.5
same,"Stability test, level in media",[3]; 8h in media,103.4 ± 10.8
same,inhibitory effect vs. control untreated cells (metabolic activity),"DLD-1 cells [4]; 48 h post-treatment, 5-Fluorouracil 16µM",18%
same,metabolic activity (in words),"DLD-1 cells [4]; CFT alone (100 µg/ml), 72 h post-treatment",significant decrease in the metabolic activity
same,weight lost,[5]; after three weeks of treatment,6.8%
same,body weight,"[5]; after three weeks of treatment, 10 mg/mouse",19.8 g
same,average weight of the mice,[5]; day of the first treatment,21.3 g
same,mortality (in words),[5]; three weeks of treatment,none of the animals died
same,protective effect on body weight,"[5]; vs. control animals, three weeks",58%
same,tumor growth after stopping treatment (in words),"HCT-116 cells [6]; mice exposed for three weeks, then treatment stopped",the tumor did not grow further
same,inhibition of tumor volume vs. control group,HCT-116 cells [6]; [9],95%
same,tumor size (volume of xenografts),HCT-116 cells [6]; [9],45.3 mm^3
same,"inhibition of tumor volume, already established tumors","HCT-116 cells [6]; treatment started when tumor volume was around 990 mm^3, vs. control untreated mice",around 50%
same,"Concentration of CFT, Lysate",DLD-1 cells [7]; 2 h,0.024 ± 0.003
same,"Concentration of CFT, Supernatant",DLD-1 cells [7]; 2 h,100.000 ± 2.970
same,"Concentration of CFT, Lysate",DLD-1 cells [7]; 4 h,0.026 ± 0.002
same,"Concentration of CFT, Supernatant",DLD-1 cells [7]; 4 h,97.073 ± 5.728
same,"Concentration of CFT, Lysate",DLD-1 cells [7]; 6 h,0.033 ± 0.003
same,"Concentration of CFT, Supernatant",DLD-1 cells [7]; 6 h,91.335 ± 7.637
same,"Concentration of CFT, Lysate",DLD-1 cells [7]; 8 h,0.032 ± 0.001
same,"Concentration of CFT, Supernatant",DLD-1 cells [7]; 8 h,98.126 ± 5.940
same,average uptake by the cells,DLD-1 cells [7]; up to 8h,around 0.02%
same,uptake of CFT,"DLD-1 cells [7]; up to 8 h, CFT 100 µg/ml",0.019-0.025%
same,"Concentration of CFT, Lysate","HCT-116 cells [8]; HCT-116 cells, 2 h",0.047 ± 0.003
same,"Concentration of CFT, Supernatant","HCT-116 cells [8]; HCT-116 cells, 2 h",96.900 ± 3.818
same,"Concentration of CFT, Lysate","HCT-116 cells [8]; HCT-116 cells, 4 h",0.066 ± 0.012
same,"Concentration of CFT, Supernatant","HCT-116 cells [8]; HCT-116 cells, 4 h",105.000 ± 4.168
same,"Concentration of CFT, Lysate","HCT-116 cells [8]; HCT-116 cells, 6 h",0.056 ± 0.001
same,"Concentration of CFT, Supernatant","HCT-116 cells [8]; HCT-116 cells, 6 h",96.750 ± 8.697
same,"Concentration of CFT, Lysate","HCT-116 cells [8]; HCT-116 cells, 8 h",0.053 ± 0.010
same,"Concentration of CFT, Supernatant","HCT-116 cells [8]; HCT-116 cells, 8 h",88.900 ± 8.326
same,uptake of CFT,"HCT-116 cells [8]; HCT-116 cells, up to 8 h, CFT 100 µg/ml",0.047-0.066%
same,average uptake in HCT-116 cells compared to DLD-1 cells,HCT-116 cells [8]; up to 8h,2 folds
same,uptake in HCT-116 cells compared to DLD-1 cells,"HCT-116 cells [8]; up to 8 h, CFT 100 µg/ml",~2.5 fold
same,inhibition of proliferation (metabolic activity),Caco-2 cells,30%
same,metabolic activity of macrophages (in words),RAW 264.7 cells,restored to control untreated cells
